Laboratory results reported in ChEMBL document CHEMBL1145638, “Discovery of a novel submicromolar inhibitor of the lymphoid specific tyrosine phosphatase” (Bioorg Med Chem Lett, 2008).

molecular target: T1, Tyrosine-protein phosphatase non-receptor type 22 (Homo sapiens, UniProt Q9Y2R2); test: Inhibition of lymphoid specific tyrosine phosphatase
T1 sequence (Q9Y2R2 whole entry): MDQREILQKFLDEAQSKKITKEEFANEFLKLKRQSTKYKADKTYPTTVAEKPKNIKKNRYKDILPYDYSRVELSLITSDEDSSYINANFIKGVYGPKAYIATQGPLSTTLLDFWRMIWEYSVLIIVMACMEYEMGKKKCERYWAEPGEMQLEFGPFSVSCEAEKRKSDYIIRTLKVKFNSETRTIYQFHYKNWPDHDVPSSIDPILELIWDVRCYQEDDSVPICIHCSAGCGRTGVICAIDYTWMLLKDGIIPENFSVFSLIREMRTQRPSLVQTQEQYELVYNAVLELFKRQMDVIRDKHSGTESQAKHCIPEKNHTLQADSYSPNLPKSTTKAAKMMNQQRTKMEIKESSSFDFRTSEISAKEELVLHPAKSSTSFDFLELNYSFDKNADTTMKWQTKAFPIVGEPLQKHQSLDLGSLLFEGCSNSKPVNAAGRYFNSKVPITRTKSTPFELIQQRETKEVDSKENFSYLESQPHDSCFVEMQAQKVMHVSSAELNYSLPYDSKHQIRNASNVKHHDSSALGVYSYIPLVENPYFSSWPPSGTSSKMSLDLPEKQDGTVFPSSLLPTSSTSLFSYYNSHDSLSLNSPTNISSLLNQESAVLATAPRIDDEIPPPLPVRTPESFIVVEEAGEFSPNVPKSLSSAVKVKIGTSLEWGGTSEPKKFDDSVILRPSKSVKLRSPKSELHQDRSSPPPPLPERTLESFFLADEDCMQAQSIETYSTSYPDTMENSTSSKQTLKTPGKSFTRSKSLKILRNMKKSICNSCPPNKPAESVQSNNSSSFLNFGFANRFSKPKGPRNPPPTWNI

IC50 [µM] | Compound
2.8 | O=C(O)CN1C(=O)S/C(=C\c2ccc(-c3ccc(O)c(C(=O)O)c3)s2)C1=O
> 44 | O=C1CN(/N=C/c2ccc(-c3ccc(O)c(C(=O)O)c3)o2)C(=O)N1
44 | COC(=O)CCN1C(=O)S/C(=C\c2ccc(-c3ccc(O)c(C(=O)OC)c3)o2)C1=O
> 44 | COC(=O)CCN1C(=O)S/C(=C\c2ccc(-c3ccc(O)c(C(=O)OC)c3)s2)C1=O
36 | O=C(O)CN1C(=O)CN(/N=C/c2ccc(-c3ccc(O)c(C(=O)O)c3)o2)C1=O
5.1 | O=C(O)CCN1C(=O)S/C(=C\c2ccc(-c3ccc(O)c(C(=O)O)c3)o2)C1=O
> 44 | COC(=O)CN1C(=O)S/C(=C\c2ccc(-c3ccc(O)c(C(=O)OC)c3)s2)C1=O
14 | O=C(O)C(Cc1ccccc1)N1C(=O)/C(=C/C2=c3ccccc3=CCC2)SC1=S (stereo not given)
1.8 | COC(=O)CN1C(=O)S/C(=C\c2ccc(-c3ccc(O)c(C(=O)O)c3)s2)C1=O
> 44 | COC(=O)c1cc(-c2ccc(/C=N/N3CC(=O)NC3=O)s2)ccc1O
2.5 | CC(C(=O)O)N1C(=O)/C(=C/C=C/c2ccco2)SC1=S (stereo not given)
1.9 | Cc1ccccc1NC(=O)CN1C(=O)S/C(=C\c2cccn2-c2cccc(C(=O)O)c2)C1=O
1 | Cc1ccc(NC(=O)CN2C(=O)S/C(=C\c3cccn3-c3cccc(C(=O)O)c3)C2=O)c(C)c1
5.6 | O=C(O)CN1C(=O)S/C(=C\c2ccc(-c3ccc(O)c(C(=O)O)c3)o2)C1=O
5.9 | O=C(O)CCN1C(=O)S/C(=C\c2ccc(-c3ccc(O)c(C(=O)O)c3)s2)C1=O
1.9 | CC(C)C(C(=O)O)N1C(=O)/C(=C/C=C/c2ccco2)SC1=S (stereo not given)
> 44 | COC(=O)c1cc(-c2ccc(/C=C3\SC(=O)N(CC(=O)O)C3=O)o2)ccc1O
18 | COC(=O)c1cc(-c2ccc(/C=C3\SC(=O)N(CC(=O)O)C3=O)s2)ccc1O

IC50 [µM] | Compound
5.4 | O=C(O)CN1C(=O)/C(=C/c2ccc(-c3ccc(O)c(C(=O)O)c3)s2)SC1=S
4.8 | Cc1cccc(C)c1NC(=O)CN1C(=O)S/C(=C\c2cccn2-c2cccc(C(=O)O)c2)C1=O
4.8 | COC(=O)CN1C(=O)S/C(=C\c2ccc(-c3ccc(O)c(C(=O)O)c3)o2)C1=O
21 | COC(=O)c1cc(-c2ccc(/C=C3\SC(=S)N(CC(=O)O)C3=O)o2)ccc1O
> 44 | COC(=O)CN1C(=O)S/C(=C\c2ccc(-c3ccc(O)c(C(=O)OC)c3)o2)C1=O
34 | O=C1CN(/N=C/c2ccc(-c3ccc(O)c(C(=O)O)c3)s2)C(=O)N1
4.3 | COC(=O)c1cc(-c2ccc(/C=C3\SC(=O)N(CCC(=O)O)C3=O)o2)ccc1O
> 44 | O=C(O)CN1C(=O)CN(/N=C/c2ccc(-c3ccc(O)c(C(=O)O)c3)s2)C1=O
> 44 | O=C(O)COc1ccc(-c2ccc(/C=C3\SC(=S)N(CC(=O)O)C3=O)o2)cc1C(=O)O
4.3 | COC(=O)c1cc(-c2ccc(/C=C3\SC(=S)N(CC(=O)O)C3=O)s2)ccc1O
> 44 | COC(=O)c1cc(-c2ccc(/C=N/N3CC(=O)NC3=O)o2)ccc1O
0.98 | O=C(O)CCN1C(=O)/C(=C\c2ccc(-c3nc4ccccc4s3)o2)SC1=S
8.7 | O=C(O)CN1C(=O)/C(=C/c2ccc(-c3ccc(O)c(C(=O)O)c3)o2)SC1=S
0.39 | COC(=O)c1cc(-c2ccc(/C=C3\SC(=O)N(CCC(=O)O)C3=O)s2)ccc1O
1.3 | O=C(O)CCCN1C(=O)/C(=C\c2ccc(-c3nc4ccccc4s3)o2)SC1=S
3.3 | Cc1ccc(NC(=O)CN2C(=O)S/C(=C\c3ccc(-c4cccc(C(=O)O)c4C)o3)C2=O)cc1 (stereo in doubt; form 1)
3.5 | Cc1ccc(NC(=O)CN2C(=O)S/C(=C\c3ccc(-c4cccc(C(=O)O)c4C)o3)C2=O)cc1 (stereo in doubt; form 2)
